# Measurements reported in PMC7419507, “In vitro Cas9-assisted editing of modular polyketide synthase genes to produce desired natural product derivatives” (Nature Communications, 2020).
# Values joined by “and” are separate entries in the source; they are usually repeats but may differ in a detail not shown here. Identical values can stand only once.
# Key:
# [1] = Cytotoxicity assay (CellTiter-Glo, 72 h), Jurkat; assay type: cell-based; conditions: human, Jurkat cells (T lymphoma); for viability at 72 h, 9.53674e-05 uM: conc 9.53674e-5 uM; for viability at 72 h, 0.000190735 uM: conc 0.000190735 uM; for viability at 72 h, 0.00038147 uM: conc 0.00038147 uM; for viability at 72 h, 0.000762939 uM: conc 0.000762939 uM; for viability at 72 h, 0.00152588 uM: conc 0.00152588 uM; for viability at 72 h, 0.00305176 uM: conc 0.00305176 uM; for viability at 72 h, 0.00610352 uM: conc 0.00610352 uM; for viability at 72 h, 0.012207 uM: conc 0.012207 uM; for viability at 72 h, 0.0244141 uM: conc 0.0244141 uM; for viability at 72 h, 0.0488281 uM: conc 0.0488281 uM; for viability at 72 h, 0.0976562 uM: conc 0.0976562 uM; for viability at 72 h, 0.195312 uM: conc 0.195312 uM; for viability at 72 h, 0.390625 uM: conc 0.390625 uM; for viability at 72 h, 0.78125 uM: conc 0.78125 uM; for viability at 72 h, 1.5625 uM: conc 1.5625 uM; for viability at 72 h, 3.125 uM: conc 3.125 uM; for viability at 72 h, 6.25 uM: conc 6.25 uM; for viability at 72 h, 12.5 uM: conc 12.5 uM; for viability at 72 h, 25 uM: conc 25 uM
# Method in brief: (§1)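 Cells were seeded at 1000 cells/well and allowed 4 h at 37 °C, 5% CO2 before 2-fold compound dilutions in DMSO were added (0.5% final DMSO). After 72 h exposure, viability was read by CellTiter-Glo luminescence.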
# T lymphoma Jurkat cells = assay: Cytotoxicity assay (CellTiter-Glo, 72 h), Jurkat; assay type: cell-based; conditions: raw data (replicates)
# Method in brief: as §1
SMILES,"viability at 72 h, 9.53674e-05 uM ([1]; raw data (replicates)) [%]","viability at 72 h, 0.000190735 uM ([1]; raw data (replicates)) [%]","viability at 72 h, 0.00038147 uM ([1]; raw data (replicates)) [%]","viability at 72 h, 0.000762939 uM ([1]; raw data (replicates)) [%]","viability at 72 h, 0.00152588 uM ([1]; raw data (replicates)) [%]","viability at 72 h, 0.00305176 uM ([1]; raw data (replicates)) [%]","viability at 72 h, 0.00610352 uM ([1]; raw data (replicates)) [%]","viability at 72 h, 0.012207 uM ([1]; raw data (replicates)) [%]","viability at 72 h, 0.0244141 uM ([1]; raw data (replicates)) [%]","viability at 72 h, 0.0488281 uM ([1]; raw data (replicates)) [%]","viability at 72 h, 0.0976562 uM ([1]; raw data (replicates)) [%]","viability at 72 h, 0.195312 uM ([1]; raw data (replicates)) [%]","viability at 72 h, 0.390625 uM ([1]; raw data (replicates)) [%]","viability at 72 h, 0.78125 uM ([1]; raw data (replicates)) [%]","viability at 72 h, 1.5625 uM ([1]; raw data (replicates)) [%]","viability at 72 h, 3.125 uM ([1]; raw data (replicates)) [%]","viability at 72 h, 6.25 uM ([1]; raw data (replicates)) [%]","viability at 72 h, 12.5 uM ([1]; raw data (replicates)) [%]","viability at 72 h, 25 uM ([1]; raw data (replicates)) [%]",Jurkat viability (%) (T lymphoma Jurkat cells; conc 9.53674e-5 uM),also measured
"CO[C@H]1C[C@@H]2CC[C@@H](C)[C@@](O)(O2)C(=O)C(=O)N2CCCC[C@H]2C(=O)O[C@H]([C@H](C)C[C@@H]2CC[C@@H](O)[C@H](OC)C2)CC(=O)[C@H](C)/C=C(\C)[C@@H](O)[C@@H](OC)C(=O)[C@H](C)C[C@H](C)/C=C/C=C/C=C/1C [Compound 1, rapamycin, reference compound]",51.5,40.1,41,32.5,100,41.9,30.7,28.3,25.3,24.5,24,24.4,23.8,23.7,23.8,23.9,20.6,18.3,7.7,52.8% and 57.4%,"viability at 72 h ([1]; 72 h, read-out: Plateau level of cell viability in the dose-response curve): ~25%; Jurkat viability (%) (T lymphoma Jurkat cells; conc 0.000190735 uM): 35.2% and 40.4%; Jurkat viability (%) (T lymphoma Jurkat cells; conc 0.00038147 uM): 39.9% and 44.6%; Jurkat viability (%) (T lymphoma Jurkat cells; conc 0.000762939 uM): 31.7%; Jurkat viability (%) (T lymphoma Jurkat cells; conc 0.00152588 uM): 102.7% and 105.0%; Jurkat viability (%) (T lymphoma Jurkat cells; conc 0.00305176 uM): 37.4%; Jurkat viability (%) (T lymphoma Jurkat cells; conc 0.00610352 uM): 31.8% and 34.7%; Jurkat viability (%) (T lymphoma Jurkat cells; conc 0.012207 uM): 28.7% and 28.4%; Jurkat viability (%) (T lymphoma Jurkat cells; conc 0.0244141 uM): 27.2% and 27.1%; Jurkat viability (%) (T lymphoma Jurkat cells; conc 0.0488281 uM): 23.4%; Jurkat viability (%) (T lymphoma Jurkat cells; conc 0.0976562 uM): 26.6% and 24.6%; Jurkat viability (%) (T lymphoma Jurkat cells; conc 0.195312 uM): 24.1% and 25.5%; Jurkat viability (%) (T lymphoma Jurkat cells; conc 0.390625 uM): 24.1% and 24.6%; Jurkat viability (%) (T lymphoma Jurkat cells; conc 0.78125 uM): 24.2%; Jurkat viability (%) (T lymphoma Jurkat cells; conc 1.5625 uM): 22.7% and 24.6%; Jurkat viability (%) (T lymphoma Jurkat cells; conc 3.125 uM): 21.8% and 23.2%; Jurkat viability (%) (T lymphoma Jurkat cells; conc 6.25 uM): 22.0% and 21.9%; Jurkat viability (%) (T lymphoma Jurkat cells; conc 12.5 uM): 19.2%; Jurkat viability (%) (T lymphoma Jurkat cells; conc 25 uM): 6.4% and 6.3%; Jurkat viability (%) (T lymphoma Jurkat cells; conc 50 uM): 0.5% and 0.178% and 0.2%"
CO[C@@H]1/C=C/C=C/[C@@H](C)C[C@@H](C)C(=O)C[C@H](O)/C(C)=C/[C@@H](C)C(=O)C[C@@H]([C@H](C)C[C@@H]2CC[C@@H](O)[C@H](OC)C2)OC(=O)[C@@H]2CCCCN2C(=O)C(=O)[C@]2(O)O[C@@H](CC[C@H]2C)C1 [Compound 9],97.1,100,106,102,106,97.7,105,92.7,93.7,86,74.9,60.9,51.4,42.4,36.2,29.7,31.2,29,27.4,97.9% and 103.8%,"viability at 72 h, 50 uM ([1]; conc 50 uM, raw data (replicates)): 18.3%; Jurkat viability (%) (T lymphoma Jurkat cells; conc 0.000190735 uM): 101.0% and 98.6%; Jurkat viability (%) (T lymphoma Jurkat cells; conc 0.00038147 uM): 107.1% and 103.4%; Jurkat viability (%) (T lymphoma Jurkat cells; conc 0.000762939 uM): 103.5% and 104.2%; Jurkat viability (%) (T lymphoma Jurkat cells; conc 0.00152588 uM): 104.2% and 102.7%; Jurkat viability (%) (T lymphoma Jurkat cells; conc 0.00305176 uM): 97.4% and 96.9%; Jurkat viability (%) (T lymphoma Jurkat cells; conc 0.00610352 uM): 101.3% and 103.8%; Jurkat viability (%) (T lymphoma Jurkat cells; conc 0.012207 uM): 97.2% and 97.8%; Jurkat viability (%) (T lymphoma Jurkat cells; conc 0.0244141 uM): 92.4% and 98.8%; Jurkat viability (%) (T lymphoma Jurkat cells; conc 0.0488281 uM): 88.4% and 81.5%; Jurkat viability (%) (T lymphoma Jurkat cells; conc 0.0976562 uM): 82.2% and 81.2%; Jurkat viability (%) (T lymphoma Jurkat cells; conc 0.195312 uM): 57.1% and 58.0%; Jurkat viability (%) (T lymphoma Jurkat cells; conc 0.390625 uM): 50.5% and 48.6%; Jurkat viability (%) (T lymphoma Jurkat cells; conc 0.78125 uM): 40.3% and 41.8%; Jurkat viability (%) (T lymphoma Jurkat cells; conc 1.5625 uM): 36.4% and 39.4%; Jurkat viability (%) (T lymphoma Jurkat cells; conc 3.125 uM): 29.6% and 29.1%; Jurkat viability (%) (T lymphoma Jurkat cells; conc 6.25 uM): 28.9% and 29.5%; Jurkat viability (%) (T lymphoma Jurkat cells; conc 12.5 uM): 26.0% and 28.1%; Jurkat viability (%) (T lymphoma Jurkat cells; conc 25 uM): 26.9% and 28.7%; Jurkat viability (%) (T lymphoma Jurkat cells; conc 50 uM): 17.4% and 19.3%"
